# Assay results from patent US20110020843A1, “LABEL-FREE METHODS RELATED TO PHOSPHODIESTERASES” (priority 2009, published 2011).
# Columns and labels:
# [1] = tested on: human lung carcinoma A549 cells; assay: Label-free Epic biosensor DMR assay in A549 cells; type: cell-based; settings: 10 micromolar, ultra-high confluent cells, 2 hrs in low CO2 (~2%) (FIG. 12B)
# Protocol: 169. Cells were typically grown using ˜1 to 2×10^4 cells per well at passage 3 to 15 suspended in 50 μl of the corresponding culture medium in the biosensor microplate, and were cultured at 37° C. under air/5% CO2 for ˜1 day. Except for A431 which was subject to ˜20 hr starvation through continuously culture in the serum-free DMEM, the other cell types were directly assayed without starvation. The confluency for all cells at the time of assays was ˜95% to 100%.
# 177. Epic® wavelength interrogation system (Corning Inc., Corning, N.Y.) was used for whole cell sensing. This system consists of a temperature-control unit, an optical detection unit, and an on-board liquid handling unit with robotics. The detection unit is centered on integrated fiber optics, and enables kinetic measures of cellular responses with a time interval of ˜15 sec. The compound solutions were introduced by using the on-board liquid handling unit (i.e., pippetting).
# 190. Although we used A431 cells as a model, the disclosed methods are also applicable to other types.
# 191. To characterize the polypharmacology including PDE4 inhibitory activity of compounds, we used the known EGFR inhibitor tyrphostin 51 as an example. […] Next, one or more specific DMR parameters were chosen as a readout for plotting the DMR index of the molecule.
# quiescent A431 cells = assay: DMR modulation index against panel of markers in quiescent A431 cells; type: cell-based, human
# Description: 191. To characterize the polypharmacology including PDE4 inhibitory activity of compounds, we used the known EGFR inhibitor tyrphostin 51 as an example. Quiescent A431 and proliferating A549 cells were separately exposed to tyrphostin 51 at 10 micromolar for about 1 hr to generate its primary profiles, followed by stimulation with each marker at a fixed concentration for another 1 hr or so to generate secondary profiles of the tyrphostin 51 against the panels of markers in both types of cells. Next, one or more specific DMR parameters were chosen as a readout for plotting the DMR index of the molecule.
# 192. The first panel of markers was contacted with quiescent A431 cells at concentrations close to each of the marker's EC80 or EC100, and DMR measurements were obtained with and EPIC® system. This panel of markers was selected from a library of markers identified in A431 cells using Epic® cellular assays. This panel included epidermal growth factor (EGF), epinephrine, nicotinic acid, and histamine. Each of these markers leads to a wide array of cell signaling. Using Epic® cellular assays in conjunction with chemical biology and cell biology approach similar to the EGFR DMR mentioned above, we have determined the pathway(s) and network interaction(s) that is accounted for each marker-induced DMR signal in A431 cells. The main observations are summarized below. Epidermal growth factor is a natural agonist for endogenous EGF receptor in A431 whose activation leads to a divergent array of cell signaling, including PLC-PI3K pathway, MAPK pathway, STAT pathway, and PKC pathway. Epinephrine is a natural agonist for endogenous beat2-adrenergic receptor in A431 cells, whose activation leads to cAMP-PKA pathway. Nicotinic acid is a natural agonist for endogenous GPR109A receptor in A431, whose activation leads to Gi-mediated signaling and MAPK pathway. Histamine is a natural agonist for endogenous histamine type 1 receptor (H1R) in A431, whose activation leads to Gq-mediated signaling and PKC pathway. […] Each DMR signal represents an averaged response of 4 replicates.
# 194. For the pinacidil DMR response in A549, the amplitude of the N-DMR (i.e., the amplitude 30 min after stimulation) was chosen. For the poly(I:C) DMR response in A549, the amplitude of the late DMR (i.e., the amplitude 50 min after stimulation) was chosen. For the PMA response in A549, the late DMR amplitude (i.e., the amplitude 50 min after stimulation) was chosen. For the SLIGKV-amide DMR response in A549, the P-DMR amplitude (i.e., the amplitude 20 min after stimulation) was chosen. For the forskolin response in A549 cells, the P-DMR amplitude (i.e., the amplitude 50 min after stimulation) was chosen. For the histamine response in A549, both the early DMR amplitude (i.e., amplitude 10 min after stimulation) and the late response (i.e., the amplitude 30 min after stimulation) were chosen. For the epinephrine response in A431, the P-DMR amplitude (i.e., the amplitude 50 min after stimulation) was chosen. For the nicotinic acid DMR in A431, the P-DMR amplitude (i.e., the amplitude 3 min after stimulation) was chosen. For the EGF DMR in A431, both the P-DMR (i.e., the amplitude 4 min after stimulation) and N-DMR amplitudes (i.e., the decaying amplitude between 4 min and 40 min after simulation) were chosen. For the histamine response in A431, the P-DMR amplitude (i.e., the amplitude 3 min after stimulation) was chosen. The percentage of modulation of the marker against each marker was calculated by normalizing the secondary profile of the molecule against the marker in the cell to the primary profile of the same marker acting on the same cell.
# [2] = quiescent A431, 10 micromolar pretreatment ~1 hr
smiles,measurement,setting,value
N#CC(C#N)=C(N)/C(C#N)=C/c1cc(O)c(O)c(O)c1 [tyrphostin 51],primary DMR profile,[1],closely resembled the classic Gs-DMR signals
same,effect of pretreatment on EGF induced DMR signal,"quiescent A431 cells; A431, FIG. 12C",attenuation
same,effect of pretreatment on epinephrine DMR signal,"quiescent A431 cells; A431, FIG. 12C",partially attenuated
same,effect of pretreatment on histamine DMR signal,"quiescent A431 cells; A431, FIG. 12C",partially attenuated
same,modulation of EGF N-DMR (decaying amplitude 4 to 40 min),quiescent A431 cells; [2],−5%
same,modulation of EGF P-DMR (amplitude 4 min),quiescent A431 cells; [2],−36%
same,modulation of epinephrine DMR (P-DMR amplitude 50 min),quiescent A431 cells; [2],−68%
same,modulation of histamine DMR (P-DMR amplitude 3 min),quiescent A431 cells; [2],−16%
same,modulation of nicotinic acid DMR (P-DMR amplitude 3 min),quiescent A431 cells; [2],+4%
